ChEMBL document CHEMBL1201861, “Genomics of Drug Sensitity in Cancer screening data, Wellcome Trust Sanger Institute”

Legend:
Assay in all cases: cells
Conditions in all cases: Homo sapiens
TE-8 = format: functional, cell-based;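 note: growth inhibition of TE-8 cells, measured with a cell viability readout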
Description: SANGER: Inhibition of human TE-8 cell growth in a cell viability assay.

TK-10 = format: functional, cell-based;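 note: growth inhibition of TK-10 cells, read out in a cell viability assay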
Description: SANGER: Inhibition of human TK10 cell growth in a cell viability assay.

QIMR-WIL = format: functional, cell-based;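 note: growth inhibition of QIMR-WIL cells, read out with a cell viability assay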
Description: SANGER: Inhibition of human QIMR-WIL cell growth in a cell viability assay.

LAN-6 = format: functional, cell-based;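 note: growth inhibition of LAN-6 cells, determined with a cell viability assay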
Description: SANGER: Inhibition of human LAN-6 cell growth in a cell viability assay.

IA-LM = format: functional, cell-based;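 note: cell viability assay measuring growth inhibition of human IA-LM cells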
Description: SANGER: Inhibition of human IA-LM cell growth in a cell viability assay.

KINGS-1 = format: functional, cell-based;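 note: cell viability assay measuring suppression of KINGS-1 cell growth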
Description: SANGER: Inhibition of human KINGS-1 cell growth in a cell viability assay.

SW982 = format: functional, cell-based;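 note: growth inhibition of SW982 cells, read out with a cell viability assay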
Description: SANGER: Inhibition of human SW982 cell growth in a cell viability assay.

MLMA = format: functional, cell-based;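 note: growth inhibition of MLMA cells (human), determined through a cell viability readout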
Description: SANGER: Inhibition of human MLMA cell growth in a cell viability assay.

EW-1 = format: functional, cell-based;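 note: growth inhibition of the human EW-1 cell line, read out by a cell viability assay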
Description: SANGER: Inhibition of human EW-1 cell growth in a cell viability assay.

KS-1 = format: functional, cell-based;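 note: growth inhibition of KS-1 cells, read out with a cell viability assay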
Description: SANGER: Inhibition of human KS-1 cell growth in a cell viability assay.

NCI-H1155 = format: functional, cell-based;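 note: cell growth inhibition measured by a viability assay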
Description: SANGER: Inhibition of human NCI-H1155 cell growth in a cell viability assay.

SK-LMS-1 = format: functional, cell-based;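 note: growth inhibition of human SK-LMS-1 cells, read out with a cell viability assay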
Description: SANGER: Inhibition of human SK-LMS-1 cell growth in a cell viability assay.

C8166 = format: functional, cell-based;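 note: growth inhibition of human C8166 cells measured by a cell viability assay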
Description: SANGER: Inhibition of human C8166 cell growth in a cell viability assay.

LS-1034 = format: functional, cell-based
Description: SANGER: Inhibition of human LS-1034 cell growth in a cell viability assay.

P30-OHK = format: functional, cell-based;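 note: growth inhibition of the P30-OHK cell line, read out with a cell viability assay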
Description: SANGER: Inhibition of human P30-OHK cell growth in a cell viability assay.

KLE = format: functional, cell-based;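 note: growth inhibition of human KLE cells, read out with a cell viability assay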
Description: SANGER: Inhibition of human KLE cell growth in a cell viability assay.

MHH-NB-11 = format: functional, cell-based;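 note: growth inhibition of human MHH-NB-11 cells, read out by a cell viability assay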
Description: SANGER: Inhibition of human MHH-NB-11 cell growth in a cell viability assay.

DOHH-2 = format: functional, cell-based;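 note: growth inhibition of human DOHH-2 cells, read out with a cell viability assay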
Description: SANGER: Inhibition of human DOHH-2 cell growth in a cell viability assay.

KARPAS-45 = format: functional, cell-based;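 note: inhibition of cell line growth, read out through a viability assay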
Description: SANGER: Inhibition of human KARPAS-45 cell growth in a cell viability assay.

NCI-H747 = format: functional, cell-based;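 note: growth inhibition of human NCI-H747 cells, read out by a cell viability assay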
Description: SANGER: Inhibition of human NCI-H747 cell growth in a cell viability assay.

MHH-PREB-1 = format: functional, cell-based;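 note: cell viability assay measuring inhibition of proliferation of human MHH-PREB-1 cells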
Description: SANGER: Inhibition of human MHH-PREB-1 cell growth in a cell viability assay.

GCIY = format: functional, cell-based;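 note: growth inhibition of the human GCIY cell line, read out by a cell viability assay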
Description: SANGER: Inhibition of human GCIY cell growth in a cell viability assay.

KY821 = format: functional, cell-based;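 note: growth inhibition of human KY821 cells, read out by a cell viability assay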
Description: SANGER: Inhibition of human KY821 cell growth in a cell viability assay.

CCRF-CEM = format: functional, cell-based;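 note: inhibition of CCRF-CEM cell growth, measured by a cell viability assay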
Description: SANGER: Inhibition of human CCRF-CEM cell growth in a cell viability assay.

KARPAS-299 = format: functional, cell-based
Description: SANGER: Inhibition of human KARPAS-299 cell growth in a cell viability assay.

8-MG-BA = format: functional, cell-based;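 note: growth inhibition of 8-MG-BA cells, read out with a cell viability assay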
Description: SANGER: Inhibition of human 8-MG-BA cell growth in a cell viability assay.

SF-126 = format: functional, cell-based;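 note: growth inhibition of human SF126 cells, read out with a cell viability assay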
Description: SANGER: Inhibition of human SF126 cell growth in a cell viability assay.

ES5 = format: functional, cell-based;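 note: growth inhibition of human ES5 cells, read out by a cell viability assay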
Description: SANGER: Inhibition of human ES5 cell growth in a cell viability assay.

COLO-668 = format: functional, cell-based
Description: SANGER: Inhibition of human COLO-668 cell growth in a cell viability assay.

SNU-C2B = format: functional, cell-based;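 note: cell viability readout used to measure compound-driven suppression of SNU-C2B cell proliferation, IC50 marking half-maximal growth inhibition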
Description: SANGER: Inhibition of human SNU-C2B cell growth in a cell viability assay.

HuTu80 = format: functional, cell-based, HUTU-80;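 note: growth inhibition of HuTu80 human cells, determined with a cell viability readout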
Description: SANGER: Inhibition of human HUTU-80 cell growth in a cell viability assay.

RPMI-8866 = format: functional, cell-based
Description: SANGER: Inhibition of human RPMI-8866 cell growth in a cell viability assay.

LU-134-A = format: functional, cell-based
Description: SANGER: Inhibition of human LU-134-A cell growth in a cell viability assay.

BB30-HNC = format: functional, cell-based;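 note: growth inhibition of the cultured cell line, read out by a cell viability assay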
Description: SANGER: Inhibition of human BB30-HNC cell growth in a cell viability assay.

HCC2218 = format: functional, cell-based;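 note: cell viability assay read-out, with IC50 given as the concentration that inhibits growth of the cell line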
Description: SANGER: Inhibition of human HCC2218 cell growth in a cell viability assay.

HOP-62 = format: functional, cell-based;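 note: cell growth inhibition determined with a viability assay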
Description: SANGER: Inhibition of human HOP-62 cell growth in a cell viability assay.

SK-NEP-1 = format: functional, cell-based;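 note: growth inhibition of human SK-NEP-1 cells, read out by a cell viability assay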
Description: SANGER: Inhibition of human SK-NEP-1 cell growth in a cell viability assay.

HH = format: functional, cell-based
Description: SANGER: Inhibition of human HH cell growth in a cell viability assay.

D-502MG = format: functional, cell-based
Description: SANGER: Inhibition of human D-502MG cell growth in a cell viability assay.

TGBC24TKB = format: functional, cell-based;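 note: growth inhibition of human TGBC24TKB cells, read out with a cell viability assay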
Description: SANGER: Inhibition of human TGBC24TKB cell growth in a cell viability assay.

U-87 MG = format: functional, cell-based, U-87MG ATCC;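 note: growth inhibition of the cells measured with a viability assay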
Description: SANGER: Inhibition of human U-87-MG cell growth in a cell viability assay.

EKVX = format: functional, cell-based;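 note: growth inhibition of human EKVX cells, read out with a cell viability assay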
Description: SANGER: Inhibition of human EKVX cell growth in a cell viability assay.

A704 = format: functional, cell-based;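 note: growth inhibition of human A704 cells, read out with a cell viability assay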
Description: SANGER: Inhibition of human A704 cell growth in a cell viability assay.

NEC8 = format: functional, cell-based;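 note: growth inhibition of human NEC8 cells, read out by a cell viability assay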
Description: SANGER: Inhibition of human NEC8 cell growth in a cell viability assay.

NOMO-1 = format: functional, cell-based;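 note: growth inhibition of human NOMO-1 cells measured by a cell viability assay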
Description: SANGER: Inhibition of human NOMO-1 cell growth in a cell viability assay.

SNU1 = format: functional, cell-based;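 note: growth inhibition of human NCI-SNU-1 cells, measured with a cell viability assay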
Description: SANGER: Inhibition of human NCI-SNU-1 cell growth in a cell viability assay.

LS-513 = format: functional, cell-based
Description: SANGER: Inhibition of human LS-513 cell growth in a cell viability assay.

ONS-76 = format: functional, cell-based;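 note: growth inhibition of human ONS-76 cells, read out with a cell viability assay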
Description: SANGER: Inhibition of human ONS-76 cell growth in a cell viability assay.

Mo = format: functional, cell-based
Description: SANGER: Inhibition of human Mo-T cell growth in a cell viability assay.

Ramos-2G6-4C10 = format: functional, cell-based;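 note: growth inhibition of the cell line, measured by a cell viability read-out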
Description: SANGER: Inhibition of human Ramos-2G6-4C10 cell growth in a cell viability assay.

Lu-65 = format: functional, cell-based;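 note: growth inhibition of Lu-65 cancer cells, read out by a cell viability assay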
Description: SANGER: Inhibition of human LU-65 cell growth in a cell viability assay.

CW-2 = format: functional, cell-based;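 note: growth inhibition of CW-2 cells, read out by a cell viability assay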
Description: SANGER: Inhibition of human CW-2 cell growth in a cell viability assay.

KURAMOCHI = format: functional, cell-based;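 note: growth inhibition of KURAMOCHI cells, read out with a cell viability assay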
Description: SANGER: Inhibition of human KURAMOCHI cell growth in a cell viability assay.

OMC-1 = format: functional, cell-based;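 note: growth inhibition of the OMC-1 cell line, measured by a cell viability assay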
Description: SANGER: Inhibition of human OMC-1 cell growth in a cell viability assay.

LNCaP-Clone-FGC = format: functional, cell-based
Description: SANGER: Inhibition of human LNCaP-Clone-FGC cell growth in a cell viability assay.

SW 962 = format: functional, cell-based;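 note: growth inhibition of human SW962 cells, read out by a cell viability assay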
Description: SANGER: Inhibition of human SW962 cell growth in a cell viability assay.

HCE-T = format: functional, cell-based;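 note: cell viability assay read-out, reporting inhibition of HCE-T cell growth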
Description: SANGER: Inhibition of human HCE-T cell growth in a cell viability assay.

LXF-289 cell line = format: functional, cell-based
Description: SANGER: Inhibition of human LXF-289 cell growth in a cell viability assay.

NOS-1 = format: functional, cell-based;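 note: growth inhibition of the human NOS-1 cell line, read out with a cell viability assay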
Description: SANGER: Inhibition of human NOS-1 cell growth in a cell viability assay.

NB6 = format: functional, cell-based
Description: SANGER: Inhibition of human NB6 cell growth in a cell viability assay.

NCI-H69 = format: functional, cell-based
Description: SANGER: Inhibition of human NCI-H69 cell growth in a cell viability assay.

DJM-1 = format: functional, cell-based
Description: SANGER: Inhibition of human DJM-1 cell growth in a cell viability assay.

MSTO-211H = format: functional, cell-based
Description: SANGER: Inhibition of human MSTO-211H cell growth in a cell viability assay.

HC-1 = format: functional, cell-based
Description: SANGER: Inhibition of human HC-1 cell growth in a cell viability assay.

KMOE-2 = format: functional, cell-based
Description: SANGER: Inhibition of human KMOE-2 cell growth in a cell viability assay.

CCCS(=O)(=O)Nc1ccc(F)c(C(=O)c2c[nH]c3ncc(Cl)cc23)c1F [PLX-4720]
IC50 (TE-8): > 10000 nM | IC50 (TK-10): > 10000 nM | IC50 (QIMR-WIL): > 10000 nM | IC50 (LAN-6): > 10 µM | IC50 (IA-LM): > 10000 nM | IC50 (KINGS-1): > 10 µM | IC50 (SW982): 8420 nM | IC50 (MLMA): > 10000 nM | IC50 (EW-1): > 10000 nM | IC50 (KS-1): > 10000 nM | IC50 (NCI-H1155): > 10000 nM | IC50 (SK-LMS-1): > 10 µM | IC50 (C8166): > 10000 nM | IC50 (LS-1034): > 10000 nM | IC50 (P30-OHK): > 10000 nM | IC50 (KLE): > 10 µM | IC50 (MHH-NB-11): > 10000 nM | IC50 (DOHH-2): > 10000 nM | IC50 (KARPAS-45): 2050 nM | IC50 (NCI-H747): > 10 µM | IC50 (MHH-PREB-1): > 10000 nM | IC50 (GCIY): > 10000 nM | IC50 (KY821): 9.05 µM | IC50 (CCRF-CEM): > 10000 nM | IC50 (KARPAS-299): > 10000 nM | IC50 (8-MG-BA): 6180 nM | IC50 (SF-126): > 10000 nM | IC50 (ES5): 6150 nM | IC50 (COLO-668): > 10000 nM | IC50 (SNU-C2B): > 10000 nM | IC50 (HuTu80): > 10000 nM | IC50 (RPMI-8866): > 10000 nM | IC50 (LU-134-A): > 10000 nM | IC50 (BB30-HNC): > 10000 nM | IC50 (HCC2218): 878 nM | IC50 (HOP-62): > 10000 nM | IC50 (SK-NEP-1): > 10000 nM | IC50 (HH): > 10000 nM | IC50 (D-502MG): > 10000 nM | IC50 (TGBC24TKB): > 10000 nM | IC50 (U-87 MG): > 10000 nM | IC50 (EKVX): > 10 µM | IC50 (A704): > 10000 nM | IC50 (NEC8): > 10000 nM | IC50 (NOMO-1): > 10000 nM | IC50 (SNU1): > 10000 nM | IC50 (LS-513): > 10000 nM | IC50 (ONS-76): > 10000 nM | IC50 (Mo): > 10 µM | IC50 (Ramos-2G6-4C10): > 10000 nM | IC50 (Lu-65): > 10 µM | IC50 (CW-2): > 10000 nM | IC50 (KURAMOCHI): > 10000 nM | IC50 (OMC-1): > 10000 nM | IC50 (LNCaP-Clone-FGC): > 10000 nM | IC50 (SW 962): > 10000 nM | IC50 (HCE-T): > 10000 nM | IC50 (LXF-289 cell line): > 10000 nM | IC50 (NOS-1): > 10000 nM | IC50 (NB6): > 10 µM | IC50 (NCI-H69): > 10 µM | IC50 (DJM-1): > 10 µM | IC50 (MSTO-211H): > 10000 nM

O=c1cc(N2CCOCC2)oc2c(-c3cccc4c3sc3ccccc34)cccc12
IC50 (TE-8): > 2000 nM | IC50 (TK-10): > 2000 nM | IC50 (QIMR-WIL): > 2000 nM | IC50 (LAN-6): > 2 µM | IC50 (IA-LM): > 2000 nM | IC50 (KINGS-1): > 2 µM | IC50 (SW982): > 2000 nM | IC50 (MLMA): > 2000 nM | IC50 (EW-1): > 2000 nM | IC50 (KS-1): > 2000 nM | IC50 (NCI-H1155): > 2000 nM | IC50 (SK-LMS-1): > 2 µM | IC50 (C8166): > 2000 nM | IC50 (LS-1034): > 2000 nM | IC50 (P30-OHK): > 2000 nM | IC50 (KLE): > 2 µM | IC50 (MHH-NB-11): > 2000 nM | IC50 (DOHH-2): > 2000 nM | IC50 (NCI-H747): > 2 µM | IC50 (MHH-PREB-1): > 2000 nM | IC50 (GCIY): > 2000 nM | IC50 (CCRF-CEM): > 2000 nM | IC50 (KARPAS-299): > 2000 nM | IC50 (8-MG-BA): > 2000 nM | IC50 (SF-126): > 2000 nM | IC50 (ES5): > 2000 nM | IC50 (COLO-668): > 2000 nM | IC50 (SNU-C2B): > 2000 nM | IC50 (HuTu80): > 2000 nM | IC50 (RPMI-8866): > 2000 nM | IC50 (LU-134-A): > 2000 nM | IC50 (BB30-HNC): > 2000 nM | IC50 (HOP-62): > 2000 nM | IC50 (SK-NEP-1): > 2000 nM | IC50 (HH): 1180 nM | IC50 (D-502MG): > 2000 nM | IC50 (TGBC24TKB): > 2000 nM | IC50 (U-87 MG): > 2000 nM | IC50 (EKVX): > 2 µM | IC50 (A704): > 2000 nM | IC50 (NEC8): 1550 nM | IC50 (NOMO-1): > 2000 nM | IC50 (SNU1): 610 nM | IC50 (LS-513): > 2000 nM | IC50 (ONS-76): > 2000 nM | IC50 (Mo): > 2 µM | IC50 (Ramos-2G6-4C10): > 2000 nM | IC50 (CW-2): > 2000 nM | IC50 (KURAMOCHI): > 2000 nM | IC50 (OMC-1): > 2000 nM | IC50 (LNCaP-Clone-FGC): > 2000 nM | IC50 (SW 962): > 2000 nM | IC50 (HCE-T): > 2000 nM | IC50 (LXF-289 cell line): > 2000 nM | IC50 (NOS-1): > 2000 nM | IC50 (NB6): > 2 µM | IC50 (DJM-1): > 2 µM | IC50 (MSTO-211H): > 2000 nM

CC[C@@]1(O)C(=O)OCc2c1cc1n(c2=O)Cc2cc3ccccc3nc2-1 [CAMPTOTHECIN]
IC50 (TE-8): 4.17 nM | IC50 (TK-10): 55.8 nM | IC50 (QIMR-WIL): 0.775 nM | IC50 (IA-LM): 12 nM | IC50 (SW982): 4.06 nM | IC50 (MLMA): 8.14 nM | IC50 (EW-1): 1.78 nM | IC50 (KS-1): 57.9 nM | IC50 (NCI-H1155): 1.19 nM | IC50 (HC-1): 3.34 nM | IC50 (C8166): 41.5 nM | IC50 (LS-1034): > 100 nM | IC50 (P30-OHK): 2.79 nM | IC50 (MHH-NB-11): 0.842 nM | IC50 (DOHH-2): 0.602 nM | IC50 (MHH-PREB-1): 2.73 nM | IC50 (GCIY): 66.1 nM | IC50 (KY821): 0.00812 µM | IC50 (CCRF-CEM): 5.55 nM | IC50 (KARPAS-299): > 100 nM | IC50 (8-MG-BA): 1.5 nM | IC50 (SF-126): 2.84 nM | IC50 (ES5): 0.774 nM | IC50 (COLO-668): 22.3 nM | IC50 (SNU-C2B): 35.4 nM | IC50 (HuTu80): 3.38 nM | IC50 (RPMI-8866): 1.72 nM | IC50 (LU-134-A): 0.586 nM | IC50 (BB30-HNC): 21.5 nM | IC50 (HCC2218): 55.5 nM | IC50 (HOP-62): > 100 nM | IC50 (SK-NEP-1): 1.23 nM | IC50 (HH): 13.5 nM | IC50 (D-502MG): 22.6 nM | IC50 (TGBC24TKB): 53.7 nM | IC50 (U-87 MG): 6.63 nM | IC50 (A704): 15.4 nM | IC50 (NEC8): 3.11 nM | IC50 (NOMO-1): 1.56 nM | IC50 (SNU1): 1.09 nM | IC50 (LS-513): 19.4 nM | IC50 (ONS-76): 2.41 nM | IC50 (Ramos-2G6-4C10): 10.5 nM | IC50 (CW-2): 35.4 nM | IC50 (KURAMOCHI): > 100 nM | IC50 (OMC-1): 78.2 nM | IC50 (KMOE-2): 11.3 nM | IC50 (LNCaP-Clone-FGC): 31 nM | IC50 (SW 962): 20.5 nM | IC50 (HCE-T): 5.47 nM | IC50 (LXF-289 cell line): 7.05 nM | IC50 (NOS-1): 91.9 nM | IC50 (MSTO-211H): 8.24 nM
